Consider 38 compounds from patent US5968907A (priority 1997, dated 1999).

A word on the inhibition: it is the drop in the measured response relative to a control, in per cent.

SMILES strings stand for the structures.

For assay [1], the target named is heat-labile enterotoxin from E. coli (Escherichia coli, UniProt P0CK94). The assay is classed as binding. The settings on record: at the concentration employed in the assay.
The next assay has as its target cholera toxin (Vibrio cholerae serotype O1, UniProt P01556). As to the kind of experiment: biochemical. The settings on record: read-out: inhibition of binding of cholera toxin to ganglioside GD1b.

cholera toxin, sequence (P01556 22-124 limits assumed): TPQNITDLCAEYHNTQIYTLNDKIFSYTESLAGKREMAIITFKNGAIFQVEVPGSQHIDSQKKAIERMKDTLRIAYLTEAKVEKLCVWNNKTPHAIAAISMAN
heat-labile enterotoxin from E. coli, sequence (P0CK94 whole entry, looked up): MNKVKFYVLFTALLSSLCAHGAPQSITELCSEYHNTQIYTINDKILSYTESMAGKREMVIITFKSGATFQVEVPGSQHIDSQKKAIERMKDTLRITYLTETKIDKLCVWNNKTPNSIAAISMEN

Take `OC[C@H]1O[C@@H](SC2CCCCC2O)[C@H](O)[C@@H](O)[C@H]1O` (stereo partly drawn) [Example A2, 2-Hydroxycyclohex-1-yl 1-Thio-β-D-galactopyranoside]: the “inhibition of binding of heat-labile enterotoxin to ganglioside GD1b” value in assay [1] is recorded as under 20%.

On to `CC(O)CC(S[C@@H]1O[C@H](CO)[C@H](O)[C@H](O)[C@H]1O)c1ccccc1` (stereo partly drawn) [Example A3, 3-Hydroxy-1-phenylbut-1-yl 1-Thio-β-D-galactopyranoside], for which the inhibition at 1000 µg/mL on cholera toxin was under 20%.

Regarding `CC1(C)CC(O)CC1S[C@@H]1O[C@H](CO)[C@H](O)[C@H](O)[C@H]1O` (stereo partly drawn) [Example A6, 2,2-Dimethyl-4-hydroxycyclopent-1-yl 1-Thio-β-D-galactopyranoside], on cholera toxin, the inhibition at 1000 µg/mL is under 20%.

On to `CC(O)CC(C)S[C@@H]1O[C@H](CO)[C@H](O)[C@H](O)[C@H]1O` (stereo partly drawn) [Example A8, 4Hydroxypent-2-yl 1-Thio-β-D-galactopyranoside], for which the inhibition at 1000 µg/mL at cholera toxin was under 20%.

In the case of `CC1(C)CCC(S[C@@H]2O[C@H](CO)[C@H](O)[C@H](O)[C@H]2O)CC1O` (stereo partly drawn) [Example A11, 4,4Dimethyl-3-hydroxycyclohex-1-yl 1-Thio-β-D-galactopyranoside], the “inhibition of binding of heat-labile enterotoxin to ganglioside GD1b” value in assay [1] is “at least 20%”.

`CC(N)CC(S[C@@H]1O[C@H](CO)[C@H](O)[C@H](O)[C@H]1O)c1ccccc1` (stereo partly drawn) [Example B3, 3-Amino-1-phenylbut-1-yl 1-Thio-β-D-galactopyranoside]: the inhibition at 1000 µg/mL at cholera toxin was under 20%.

With `CC1(C)CC(N)CC1S[C@@H]1O[C@H](CO)[C@H](O)[C@H](O)[C@H]1O` (stereo partly drawn) [Example B6, 2,2-Dimethyl-4aminocyclopent-1-yl 1-Thio-β-D-galactopyranoside], the inhibition at 1000 µg/mL on cholera toxin is at least 20%.

With `CNC1CC(S[C@@H]2O[C@H](CO)[C@H](O)[C@H](O)[C@H]2O)C(C)(C)C1` (stereo partly drawn) [Example B6A, 2,2-Dimethyl-4-(methylamino)-cyclopent-1-yl 1-Thio-β-D-galactopyranoside], the inhibition at 1000 µg/mL on cholera toxin was at least 20%.

Consider `CC1CCC(NC2CC(S[C@@H]3O[C@H](CO)[C@H](O)[C@H](O)[C@H]3O)C(C)(C)C2)CC1` (stereo partly drawn) [Example B6L, 2,2-Dimethyl-4-(4-methylcyclohex-1-ylamino)-cyclopent-1-yl 1-Thio-β-D-galactopyranoside], for which the inhibition at 1000 µg/mL on cholera toxin was at least 20%.

On to `CC1CCC(NC2CC(S[C@@H]3O[C@H](CO)[C@H](O)[C@H](O)[C@H]3O)C(C)(C)C2)C1` (stereo partly drawn) [Example B6Q, 2,2-Dimethyl-4-(3-methylcyclopent-1-ylamino)-cyclopent-1-yl 1-Thio-β-D-galactopyranoside], for which, on cholera toxin, the inhibition at 1000 µg/mL was at least 20%.

Consider `CC1CCCC(NC2CC(S[C@@H]3O[C@H](CO)[C@H](O)[C@H](O)[C@H]3O)C(C)(C)C2)C1` (stereo partly drawn) [Example B6T, 2,2-Dimethyl-4-(3-methylcyclohex-1-ylamino)-cyclopent-1-yl 1-Thio-β-D-galactopyranoside], for which the inhibition at 1000 µg/mL at cholera toxin is at least 20%.

Regarding `CC(N)CC(C)S[C@@H]1O[C@H](CO)[C@H](O)[C@H](O)[C@H]1O` (stereo partly drawn) [Example B8, 4-Aminopent-2-yl 1-Thio-β-D-galactopyranoside], the inhibition at 1000 µg/mL at cholera toxin is at least 20%.

On to `CC(=O)NC1CCCC1S[C@@H]1O[C@H](CO)[C@H](O)[C@H](O)[C@H]1O` (stereo partly drawn) [Example C1, 2-Acetamidocyclopent-1-yl 1-Thio-β-D-galactopyranoside], for which the inhibition at 1000 µg/mL on cholera toxin was under 20%.

Take `CC(=O)NC(C)CC(S[C@@H]1O[C@H](CO)[C@H](O)[C@H](O)[C@H]1O)c1ccccc1` (stereo partly drawn) [Example C3, 3-Acetamido-1-phenylbut-1-yl 1-Thio-β-D-galactopyranoside]: on cholera toxin, the inhibition at 1000 µg/mL is under 20%.

In the case of `CC(=O)NC(C)CC(C)S[C@@H]1O[C@H](CO)[C@H](O)[C@H](O)[C@H]1O` (stereo partly drawn) [Example C8, 4-Acetamidopent-2-yl 1-Thio-β-D-galactopyranoside], at cholera toxin, the inhibition at 1000 µg/mL is under 20%.

With `O=C(O)c1ccccc1C(=O)NC1CCCC1S[C@@H]1O[C@H](CO)[C@H](O)[C@H](O)[C@H]1O` (stereo partly drawn) [Example D1, 2-(2-Carboxybenzamido)cyclopent-1-yl 1-Thio-β-D-galactopyranoside], the inhibition at 1000 µg/mL on cholera toxin is at least 20%.

As to `CC(CC(S[C@@H]1O[C@H](CO)[C@H](O)[C@H](O)[C@H]1O)c1ccccc1)NC(=O)c1ccccc1C(=O)O` (stereo partly drawn) [Example D3, 3-(2-Carboxybenzamido)-1-phenylbut-1-yl 1-Thio-β-D-galactopyranoside], the inhibition at 1000 µg/mL at cholera toxin was under 20%.

`CC(CC(C)S[C@@H]1O[C@H](CO)[C@H](O)[C@H](O)[C@H]1O)NC(=O)c1ccccc1C(=O)O` (some centres unmarked) [Example D8]: on cholera toxin, the inhibition at 1000 µg/mL was at least 20%.

`O=C(O)CNC1CCCCC(S[C@@H]2O[C@H](CO)[C@H](O)[C@H](O)[C@H]2O)C1` (stereo partly drawn) [Example E5, Nα-[3-(1-Thio-β-D-galactopyranosyl)cyclohept-1-yl]glycine]: the inhibition at 1000 µg/mL on cholera toxin is under 20%.

In the case of `CC(CC(C)S[C@@H]1O[C@H](CO)[C@H](O)[C@H](O)[C@H]1O)NCC(=O)O` (stereo partly drawn) [Example E8, Nα-[4-(1-Thio-β-D-galactopyranosyl)pent-2-yl]glycine], on cholera toxin, the inhibition at 1000 µg/mL was under 20%.

Take `CC1(C)CCC(NCC(=O)O)CC1S[C@@H]1O[C@H](CO)[C@H](O)[C@H](O)[C@H]1O` (stereo partly drawn) [Example E9, Nα-[4,4-Dimethyl-3-(1-thio-β-D-galactopyranosyl)-cyclohex-1-yl]glycine]: the inhibition at 1000 µg/mL at cholera toxin is under 20%.

For the compound `CC1(C)CC(NCCC(=O)O)CC1S[C@@H]1O[C@H](CO)[C@H](O)[C@H](O)[C@H]1O` (stereo partly drawn) [Example F6, Nβ-[4,4-Dimethyl-3-(1-thio-β-D-galactopyranosyl)-cyclopent-1-yl]-βalanine], the inhibition at 1000 µg/mL at cholera toxin was under 20%.

Take `CC1(C)CCC(NCCC(=O)O)CC1S[C@@H]1O[C@H](CO)[C@H](O)[C@H](O)[C@H]1O` (stereo partly drawn) [Example F9, Nβ-[4,4Dimethyl-3-(1-thio-β-D-galactopyranosyl)-cyclohex-1-yl]-β-alanime]: on cholera toxin, the inhibition at 1000 µg/mL was under 20%.

For `CC(C)C[C@H](NC(C)CC(S[C@@H]1O[C@H](CO)[C@H](O)[C@H](O)[C@H]1O)c1ccccc1)C(=O)O` (stereo partly drawn) [Example G3, Nα-[4-Phenyl-4-(1-thio-β-galactopyranosyl)but-2-yl]-L-leucine], the inhibition at 1000 µg/mL at cholera toxin was under 20%.

In the case of `CC(C)C[C@H](NC1CCC(S[C@@H]2O[C@H](CO)[C@H](O)[C@H](O)[C@H]2O)C1)C(=O)O` (stereo partly drawn) [Example G7, Nα-[3-(1-Thio-β-D-galactopyranosyl)cyclopent-1-yl]-L-leucine], the inhibition at 1000 µg/mL at cholera toxin is under 20%.

In the case of `CC(C)C[C@H](NC(C)CC(C)S[C@@H]1O[C@H](CO)[C@H](O)[C@H](O)[C@H]1O)C(=O)O` (stereo partly drawn) [Example G8, Nα-[4-(1-Thio-β-D-galactopyranosyl)pent-2-yl]-L-leucine], the inhibition at 1000 µg/mL on cholera toxin was under 20%.

Consider `CC(C)C[C@H](NC1CCC(C)(C)C(S[C@@H]2O[C@H](CO)[C@H](O)[C@H](O)[C@H]2O)C1)C(=O)O` (stereo partly drawn) [Example G9, Nα-[4,4-Dimethyl-3-(1-thio-β-D-galactopyranosyl)-cyclohex-1-yl]-L-leucine], for which the inhibition at 1000 µg/mL at cholera toxin is under 20%.

Regarding `CC(C)C[C@H](NC1CCCC(S[C@@H]2O[C@H](CO)[C@H](O)[C@H](O)[C@H]2O)C1)C(=O)O` (stereo partly drawn) [Example G10, Nα-[3-(1-Thio-β-D-galactopyranosyl)cyclohex-1-yl]-L-leucine], at cholera toxin, the inhibition at 1000 µg/mL was under 20%.

On to `CC(CC(S[C@@H]1O[C@H](CO)[C@H](O)[C@H](O)[C@H]1O)c1ccccc1)N[C@@H](Cc1c[nH]c2ccccc12)C(=O)O` (stereo partly drawn) [Example I3, Nα-[4-Phenyl-4-(1-thio-β-D-galactopyranosyl)but-2-yl]-L-tryptophan], for which the inhibition at 1000 µg/mL on cholera toxin was at least 20%.

As to `CC(CC(C)S[C@@H]1O[C@H](CO)[C@H](O)[C@H](O)[C@H]1O)N[C@@H](Cc1c[nH]c2ccccc12)C(=O)O` (stereo partly drawn) [Example I8, Nα-[4-(1-Thio-β-D-galactopyranosyl)pent-2-yl]-L-tryptophan], the inhibition at 1000 µg/mL on cholera toxin is under 20%.

Take `CC1(C)CCC(N[C@@H](Cc2c[nH]c3ccccc23)C(=O)O)CC1S[C@@H]1O[C@H](CO)[C@H](O)[C@H](O)[C@H]1O` (stereo partly drawn) [Example I9, Nα-[4,4-Dimethyl-3-(1-thio-β-D-galactopyranosyl)-cyclohex-1-yl]-L-tryptophan]: on cholera toxin, the inhibition at 1000 µg/mL is under 20%.

Turning to `O=C(O)[C@H](Cc1c[nH]c2ccccc12)NC1CCCC(S[C@@H]2O[C@H](CO)[C@H](O)[C@H](O)[C@H]2O)C1` (stereo partly drawn) [Example I10, Nα-[3-(1-Thio-β-D-galactopyranosyl)cyclohex-1-yl]-L-tryptophan], the inhibition at 1000 µg/mL on cholera toxin is under 20%.

With `N=C(N)NCCC[C@H](NC1CCCC1S[C@@H]1O[C@H](CO)[C@H](O)[C@H](O)[C@H]1O)C(=O)O` (stereo partly drawn) [Example J1, Nα-[2-(1-Thio-β-D-galactopyranosyl)cyclopent-1-yl]-L-arginine], the inhibition at 1000 µg/mL on cholera toxin is at least 20%.

As to `CC(CC(S[C@@H]1O[C@H](CO)[C@H](O)[C@H](O)[C@H]1O)c1ccccc1)N[C@@H](CCCNC(=N)N)C(=O)O` (stereo partly drawn) [Example J3, Nα-[4-Phenyl-4-(1-Thio-β-D-galactopyranosyl)but-2-yl]-L-arginine], on cholera toxin, the inhibition at 1000 µg/mL was at least 20%.

Turning to `N=C(N)NCCC[C@H](NC1CCCCC(S[C@@H]2O[C@H](CO)[C@H](O)[C@H](O)[C@H]2O)C1)C(=O)O` (stereo partly drawn) [Example J5, Nα-[3-(1-Thio-β-D-galactopyranosyl)cyclohept-1-yl]-L-arginine], the inhibition at 1000 µg/mL on cholera toxin is under 20%.

As for `CC1(C)CC(N[C@@H](CCCNC(=N)N)C(=O)O)CC1S[C@@H]1O[C@H](CO)[C@H](O)[C@H](O)[C@H]1O` (stereo partly drawn) [Example J6, Nα-[4,4-Dimethyl-3-(1-thio-β-D-galactopyranosyl)-cyclopent-1-yl]-L-arginine], on cholera toxin, the inhibition at 1000 µg/mL is under 20%.

Consider `CC(CC(C)S[C@@H]1O[C@H](CO)[C@H](O)[C@H](O)[C@H]1O)N[C@@H](CCCNC(=N)N)C(=O)O` (stereo partly drawn) [Example J8, Nα-[4-(1-Thio-β-D-galactopyranosyl)pent-2-yl]-L-arginine], for which, on cholera toxin, the inhibition at 1000 µg/mL was under 20%.

As to `N=C(N)NCCC[C@H](NC1CCCC(S[C@@H]2O[C@H](CO)[C@H](O)[C@H](O)[C@H]2O)C1)C(=O)O` (stereo partly drawn) [Example J10, Nα-[3-(1-Thio-β-D-galactopyranosyl)cyclohex-1-yl]-L-arginine], the inhibition at 1000 µg/mL at cholera toxin was under 20%.
